Structures can show the parent of a compound that is named as a salt.
Key:
A549 = assay: Inhibition of cell viability (MTS), A549 (negative control line); type: cell-based; conditions: A549 cells (negative control), 96 hours incubation
Description: (§1) Cells were maintained at 37° C. in a humidified atmosphere containing 5%-8% CO2 following the instructions of the supplier (American Type Culture Collection (Rockville, Md.)). Inhibition of cell viability was determined for a panel of tumor cell lines (MKN45, EBC1 and A549), using the soluble tetrazolium salt, MTS (Promega, Madison, Wis.). Cells were seeded at 2,000-7,500 cells/well in 96-well tissue culture plates and were allowed to attach for approximately 24 hours prior to addition of compounds or DMSO vehicle. […] Cells were treated in duplicate with test compounds. Compounds were serially diluted (1:2.5) from column 1 to 11 and column 12 contained DMSO vehicle. Compounds were diluted into cell growth medium then compound solution was added to cells. Equal amounts of DMSO were added to cells (final concentration is 0.5%). After background correction and normalization against DMSO-treated cells, EC50 values were calculated using non-linear curve-fitting of the cell viability as a function of compound concentration. The MKN45 and EBC1 cell lines contain high levels of phospho-Met and are dependent on cMET for proliferation, whereas the A549 line is used as negative control.
(§2) EC50 values may be calculated by non-linear curve fitting of the compound concentrations and fluorescence intensities to the standard EC50 equation.

MKN45 = assay: Inhibition of cell viability (MTS), MKN45; type: cell-based; conditions: MKN45 cells, 96 hours incubation
Description: as §1, §2

EBC1 = assay: Inhibition of cell viability (MTS), EBC1; type: cell-based; conditions: EBC1 cells, 96 hours incubation
Description: as §1, §2

[1] = target: T1, cMET enzyme (amino acids 1023-1360) (Homo sapiens, UniProt P08581); assay: Determination of inhibition of cMET (capillary electrophoresis, phosphorylated peptide product); type: biochemical; conditions: 1.2 nM cMET, 50 μM ATP, 2 μM FL-2 peptide, 2 hours room temperature
T1 construct: The cMET enzyme (amino acids 1023-1360) nominally at 24 μM was held at −80° C. until use; His tag (N, cleaved yes); made in house; host or cells: Sf9 cells
T1 sequence (P08581 1023-1360): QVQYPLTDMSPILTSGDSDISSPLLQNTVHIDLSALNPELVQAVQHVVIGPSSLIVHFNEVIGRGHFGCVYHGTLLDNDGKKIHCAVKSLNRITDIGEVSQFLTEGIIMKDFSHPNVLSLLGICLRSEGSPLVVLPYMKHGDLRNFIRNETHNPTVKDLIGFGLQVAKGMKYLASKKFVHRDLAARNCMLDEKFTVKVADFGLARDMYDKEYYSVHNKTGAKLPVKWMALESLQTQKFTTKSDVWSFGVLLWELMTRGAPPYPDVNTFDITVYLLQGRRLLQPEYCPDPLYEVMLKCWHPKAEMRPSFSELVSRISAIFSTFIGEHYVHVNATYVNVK
Description: The inhibitory property of a compound relative to cMET catalysis was determined by use of capillary electrophoresis with fluorescence quantification of a phosphorylated peptide product for cMET. The cMET enzyme (amino acids 1023-1360) nominally at 24 μM was held at −80° C. until use, in a buffer containing 25 mM Tris-HCl pH 8.5, 150 mM NaCl, 3 mM DTT and 10% glycerol. […] Following purification, the tag was removed and enzyme concentrated. […] To activate the enzyme fully, frozen cMET was thawed quickly and activated with the addition of assay buffer (50 mM HEPES pH 7.5, 10 mM NaCl, 10 mM MgCl2, 0.01% Brij® 35), 1.25 mM ATP, 5 mM MgCl2 and 5 mM DTT at a cMET concentration of 2.4 μM followed by a 30 minute incubation at room temperature. […] Next, cMET enzyme (1.2 nM final) was added and the system incubated at room temperature for 20 minutes. Catalysis was initiated by the addition of ATP (50 μM final). Assays were incubated at room temperature for 2 hours then quenched by the addition of EDTA. Phosphorylated peptide product was quantified by monitoring fluorescence during capillary electrophoresis with Caliper LifeSciences LabChip 3000 under the following settings: base pressure=−0.1 psi, screen pressure=−1.2 psi, downstream voltage=−500 V, upstream voltage=−2300 V, chip type=TC372. The elution buffer was identical to the assay buffer except for the absence of DTT, FL-2 and ATP and the addition of 0.1% coating reagent (Caliper). […] Peak height was quantified and used to determine enzyme velocities.
IC50 values were calculated by non-linear least squares curve fitting of the standard IC50 equation to background-corrected cMET velocity versus compound concentration.

SMILES | EC50 (A549; Homo sapiens, A549, 96 h) [µM] | EC50 (MKN45) [nM] | IC50 [1] [nM] | EC50 (A549) [µM] | EC50 (MKN45; Homo sapiens, MKN-45, 96 h) [nM] | EC50 (EBC1; Homo sapiens, EBC-1, 96 h) [nM] | EC50 (EBC1) [nM]
O=C(Nc1cn2nc(Sc3nnc4ccccn34)ccc2n1)C1CC1 [3 (HCl Salt)] | 8 to 25 | 250 to 630 | > 100 |  |  | 100 to 199 | 
O=C(Nc1cn2nc(Sc3nnc4ccccn34)ccc2n1)C1CC1 [3 (TFA Salt), N-(6-([1,2,4]triazolo[4,3-a]pyridin-3-ylthio)imidazo[1,2-b]pyridazin-2-yl)cyclopropanecarboxamide] |  | 250 to 630 | > 100 | 8 to 25 |  |  | 100 to 199
O=C(Nc1cn2nc(Sc3nnc4ccccn34)ccc2n1)C1CC1 [3 (free base), N-(6-([1,2,4]Triazolo[4,3-a]pyridin-3-ylthio)imidazo[1,2-b]pyridazin-2-yl)cyclopropanecarboxamide] |  | 100 to 199 | > 100 | 8 to 25 |  |  | 60 to 100
Cn1cc(-c2ccc3nnn(Cc4ccc5nc(NC(=O)C6CC6)cn5n4)c3c2)cn1 [13 (HCl Salt), N-(6-((6-(1-methyl-1H-pyrazol-4-yl)-1H-benzo[d][1,2,3]triazol-1-yl)methyl)imidazo[1,2-b]pyridazin-2-yl)cyclopropanecarboxamide] |  | 100 to 249 | 30 to 59 | 8 to 25 |  | < 35 | 
Cn1cc(-c2ccc3nnn(Cc4ccc5nc(NC(=O)C6CC6)cn5n4)c3c2)cn1 [13 (TFA Salt), Cyclopropanecarboxylic acid {6-[6-(1-methyl-1H-pyrazol-4-yl)-benzotriazol-1-ylmethyl]-imidazo[1,2-b]pyridazin-2-yl}-amide] |  | 60 to 100 | 30 to 59 | 5 to 8 |  |  | < 30
CC(c1ccc2nc(NC(=O)C3CC3)cn2n1)c1nnc2ccc(-c3cnn(C)c3)cn12 (stereo not shown) [49 (HCl Salt), N-(6-(1-(6-(1-methyl-1H-pyrazol-4-yl)-[1,2,4]triazolo[4,3-a]pyridin-3-yl)ethyl)imidazo[1,2-b]pyridazin-2-yl)cyclopropanecarboxamide] |  |  | < 30 | 8 to 25 | 30 to 59 | < 30 | 
CC(c1ccc2nc(NC(=O)C3CC3)cn2n1)c1nnc2ccc(-c3cnn(C)c3)cn12 (stereo not shown) [49 (TFA Salt), N-(6-(1-(6-(1-methyl-1H-pyrazol-4-yl)-[1,2,4]triazolo[4,3-a]pyridin-3-yl)ethyl)imidazo[1,2-b]pyridazin-2-yl)cyclopropanecarboxamide] |  | 60 to 100 | 30 to 59 | > 50 |  |  | 60 to 100
CC(c1ccc2nc(NC(=O)C3CC3)cn2n1)c1nnc2ccc(-c3cnn(C)c3)cn12 (stereo not shown) [49 (free base), N-(6-(1-(6-(1-methyl-1H-pyrazol-4-yl)-[1,2,4]triazolo[4,3-a]pyridin-3-yl)ethyl)imidazo[1,2-b]pyridazin-2-yl)cyclopropanecarboxamide] |  | 60 to 100 | < 30 | > 50 |  |  | < 30
O=C(Nc1cn2cc(Cn3nnc4cccnc43)ccc2n1)C(F)(F)F [Compound 1, N-(6-((3H-[1,2,3]triazolo[4,5-b]pyridin-3-yl)methyl)imidazo[1,2-a]pyridin-2-yl)-2,2,2-trifluoroacetamide] |  |  | > 100 |  |  |  | 
O=C(Nc1cn2cc(Cn3nnc4ncccc43)ccc2n1)C(F)(F)F [Compound 2, N-(6-((1H-[1,2,3]triazolo[4,5-b]pyridin-1-yl)methyl)imidazo-[1,2-a]pyridin-2-yl)-2,2,2-trifluoroacetamide] |  |  | > 100 |  |  |  | 
O=C(Nc1cn2nc(Sc3nnc4ccc(Br)cn34)ccc2n1)C1CC1 [Compound 4, N-(6-(6-bromo-[1,2,4]triazolo[4,3-a]pyridin-3-ylthio)imidazo[1,2-b]pyridazin-2-yl)cyclopropanecarboxamide] | > 50 |  | 30 to 59 |  | 100 to 249 | < 35 | 
Cn1cc(-c2ccc3nnc(Sc4ccc5nc(NC(=O)C6CC6)cn5n4)n3c2)cn1 [Compound 5, N-(6-(6-(1-methyl-1H-pyrazol-4-yl)-[1,2,4]triazolo[4,3-a]pyridin-3-ylthio)-imidazo[1,2-b]pyridazin-2-yl)cyclopropanecarboxamide] | > 50 |  | < 30 |  | < 100 | < 35 | 
Cc1ccn2c(Sc3ccc4nc(NC(=O)C5CC5)cn4n3)nnc2c1 [Compound 43, N-(6-(7-methyl-[1,2,4]triazolo[4,3-a]pyridin-3-ylthio)imidazo[1,2-b]pyridazin-2-yl)cyclopropanecarboxamide] |  |  | > 100 |  |  |  | 
COCCOCc1ccc2nnc(Sc3ccc4nc(NC(=O)C5CC5)cn4n3)n2c1 [Compound 112, N-(6-(6-((2-methoxyethoxy)methyl)-[1,2,4]triazolo[4,3-a]pyridin-3-ylthio)imidazo[1,2-b]pyridazin-2-yl)cyclopropanecarboxamide] |  |  | 100 to 249 |  |  |  | 
Cc1c(F)ccc2nnc(Sc3ccc4nc(NC(=O)C5CC5)cn4n3)n12 [Compound 113, N-(6-(6-fluoro-5-methyl-[1,2,4]triazolo[4,3-a]pyridin-3-ylthio)imidazo[1,2-b]pyridazin-2-yl)cyclopropanecarboxamide] |  |  | 250 to 630 |  |  |  | 

Now from value to molecule, other results behind:

EC50 (A549; Homo sapiens, A549, 96 h) [µM] | EC50 (MKN45) [nM] | IC50 [1] [nM] | EC50 (A549) [µM] | EC50 (MKN45; Homo sapiens, MKN-45, 96 h) [nM] | SMILES | EC50 (EBC1; Homo sapiens, EBC-1, 96 h) [nM] | EC50 (EBC1) [nM]
> 50 |  | < 30 |  | < 30 | Cn1cc(-c2ccc3nnc(C(F)(F)c4ccc5nc(NC(=O)C6CC6)cn5n4)n3c2)cn1 [45 (HCl Salt), N-(6-(Difluoro(6-(1-methyl-1H-pyrazol-4-yl)-[1,2,4]triazolo[4,3-a]pyridin-3-yl)methyl)imidazo[1,2-b]pyridazin-2-yl)cyclopropanecarboxamide hydrochloride] | < 30 | 
 |  | 30 to 59 |  |  | Cn1cc(-c2ccc3nnc(C(F)(F)c4ccc5nc(NC(=O)C6CC6)cn5n4)n3c2)cn1 [45 (TFA Salt), N-(6-(difluoro(6-(1-methyl-1H-pyrazol-4-yl)-[1,2,4]triazolo[4,3-a]pyridin-3-yl)methyl)imidazo[1,2-b]pyridazin-2-yl)cyclopropanecarboxamide] |  | 
 |  | < 30 |  |  | NC(=O)c1ccc(-c2ccc3nnc(C(F)(F)c4ccc5nc(NC(=O)C6CC6)cn5n4)n3c2)cc1 [Compound 89, 4-(3-((2-(cyclopropanecarboxamido)imidazo[1,2-b]pyridazin-6-yl)difluoromethyl)-[1,2,4]triazolo[4,3-a]pyridin-6-yl)benzamide] |  | 
 |  | 250 to 630 |  |  | Cc1ccncc1-c1ccc2nnc(C(F)(F)c3ccc4nc(NC(=O)C5CC5)cn4n3)n2c1 [Compound 94, N-(6-(difluoro(6-(4-methylpyridin-3-yl)-[1,2,4]triazolo[4,3-a]pyridin-3-yl)methyl)imidazo[1,2-b]pyridazin-2-yl)cyclopropanecarboxamide] |  | 
 |  | < 30 |  |  | CNC(=O)c1ccc(-c2ccc3nnc(C(F)(F)c4ccc5nc(NC(=O)C6CC6)cn5n4)n3c2)cc1 [Compound 95, 4-(3-((2-(cyclopropanecarboxamido)imidazo[1,2-b]pyridazin-6-yl)difluoromethyl)-[1,2,4]triazolo[4,3-a]pyridin-6-yl)-N-methylbenzamide] |  | 
 |  | < 30 |  |  | Cn1cc(-c2ccc3nnc(Sc4ccc5nc(NC(=O)C6CC6)cn5n4)n3c2)ccc1=O [Compound 105, N-(6-(6-(1-methyl-6-oxo-1,6-dihydropyridin-3-yl)-[1,2,4]triazolo[4,3-a]pyridin-3-ylthio)imidazo[1,2-b]pyridazin-2-yl)cyclopropanecarboxamide] |  | 
 |  | < 30 |  |  | CCn1cc(-c2ccc3nnc(Sc4ccc5nc(NC(=O)C6CC6)cn5n4)n3c2)ccc1=O [Compound 106, N-(6-(6-(1-ethyl-6-oxo-1,6-dihydropyridin-3-yl)-[1,2,4]triazolo[4,3-a]pyridin-3-ylthio)imidazo[1,2-b]pyridazin-2-yl)cyclopropanecarboxamide] |  | 
